In data set [1] the test system is Mus musculus. Kind of data set: Toxicity in Swiss albino mouse assessed as mortality at 100 mg/kg, po measured up to 24 hrs. The data set is classed as organism-based. Details: dose 100 mg/kg, route oral. Particulars: in vivo.
Data set [2] deals with Rattus norvegicus. Kind of data set: Antiinflammatory activity in Wistar rat assessed as inhibition of carrageenan-induced paw edema at 20 mg/kg, po administered 30 mins before carrageenan challenge measured after 5 hrs. The data set is classed as functional. (In general: The carrageenan paw model is a standard test of acute inflammation.)
Data set [3] has as its target Prostaglandin G/H synthase 1 (Bos taurus, UniProt O62664). Kind of data set: Inhibition of bovine COX1 assessed as PGE2 formation preincubated for 10 mins by ELISA. For orientation: In an ELISA, binding on a coated surface is turned into a signal by an enzyme label.
The test system of data set [4] is Rattus norvegicus. Kind of data set: Ulcerogenic activity in fasted Wistar albino rat at 60 mg/kg, po administered as 3 dose measured after 6 hrs post last dose. Set-up: dose 60 mg/kg, route oral. Conditions: in vivo. It counts as toxicity, organism-based.
The subject of data set [5] is Rattus norvegicus. Kind of data set: Antiinflammatory activity in Wistar rat assessed as inhibition of carrageenan-induced paw edema at 20 mg/kg, po administered 30 mins before carrageenan challenge measured after 3 hrs. The data set is classed as functional.
Data set [6] concerns Mus musculus. Kind of data set: Toxicity in Swiss albino mouse assessed as behavioral change at 100 mg/kg, po measured up to 24 hrs. Conditions: in vivo. Set-up: dose 100 mg/kg, route oral. The data set is classed as organism-based.

SMILES strings stand for the structures.

Chain of Prostaglandin G/H synthase 1 (O62664 whole entry): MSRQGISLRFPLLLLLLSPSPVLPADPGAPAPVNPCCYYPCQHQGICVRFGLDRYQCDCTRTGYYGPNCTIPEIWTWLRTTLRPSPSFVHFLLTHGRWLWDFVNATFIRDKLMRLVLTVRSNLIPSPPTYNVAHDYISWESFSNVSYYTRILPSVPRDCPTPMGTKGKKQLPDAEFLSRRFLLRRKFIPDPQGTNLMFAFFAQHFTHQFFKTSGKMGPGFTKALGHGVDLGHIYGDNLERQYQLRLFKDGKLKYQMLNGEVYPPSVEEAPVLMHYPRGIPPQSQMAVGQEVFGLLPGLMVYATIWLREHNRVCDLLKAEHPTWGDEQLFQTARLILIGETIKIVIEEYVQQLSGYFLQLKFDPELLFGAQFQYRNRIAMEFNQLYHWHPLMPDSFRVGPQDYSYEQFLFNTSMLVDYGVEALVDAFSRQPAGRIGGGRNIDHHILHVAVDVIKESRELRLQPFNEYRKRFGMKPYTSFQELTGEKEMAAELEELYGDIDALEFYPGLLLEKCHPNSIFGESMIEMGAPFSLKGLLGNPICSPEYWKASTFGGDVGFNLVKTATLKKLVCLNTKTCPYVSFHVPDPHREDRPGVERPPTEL

A word on the inhibition in vivo: it is the share of the control response that was lost under treatment. As a reminder, the IC50 is the concentration that inhibits the measured activity by half. As to `Cc1cc(O)c(C2=NN(c3ccc(S(N)(=O)=O)cc3)C(c3ccccc3O)C2)c(C)c1Cl` (stereo unspecified), the Activity result in the data set on Mus musculus [1], with Rattus norvegicus [4] and with Mus musculus [6] was “Non-toxic” throughout. Further, the figures for the inhibition in vivo at 20 mg/kg with Rattus norvegicus [2] and in the data set on Rattus norvegicus [5] were 75% and 79%, respectively. In addition, in data set [3], the half-inhibitory concentration (IC50) worked out at 65.4 µM.

As to `COc1cc(C2CC(c3c(O)cc(C)c(Cl)c3C)=NN2c2ccc(S(N)(=O)=O)cc2)cc(OC)c1OC` (stereo unspecified), the inhibition in vivo at 20 mg/kg in the data set on Rattus norvegicus [2] worked out at 75%; with Rattus norvegicus [5], 68.4%.

Turning to `COc1ccc(C2CC(c3c(O)cc(C)c(Cl)c3C)=NN2c2ccc(S(N)(=O)=O)cc2)cc1OC` (stereo unspecified), the inhibition in vivo at 20 mg/kg in the data set with Rattus norvegicus [2] turned out to be 45.5%; in the data set on Rattus norvegicus [5], 26.7%.

In the case of `Cc1cc(O)c(C2=NN(c3ccc(S(N)(=O)=O)cc3)C(c3ccccc3)C2)c(C)c1Cl` (stereo unspecified), the results for the inhibition in vivo at 20 mg/kg in the data set on Rattus norvegicus [2] and with Rattus norvegicus [5] were 36.4% and 20%, respectively.

For the compound `Cc1ccc(-c2cc(C(F)(F)F)nn2-c2ccc(S(N)(=O)=O)cc2)cc1` [CELECOXIB], the inhibition in vivo at 20 mg/kg with Rattus norvegicus [2] amounted to 82%; with Rattus norvegicus [5] it was 79.6%.

Turning to `Cc1cc(O)c(C2=NN(c3ccc(S(N)(=O)=O)cc3)C(c3ccccc3Cl)C2)c(C)c1Cl` (stereo unspecified), the inhibition in vivo at 20 mg/kg in the data set on Rattus norvegicus [2] was 45.5%; in the data set with Rattus norvegicus [5], 53%.

Values taken from ChEMBL document CHEMBL1949518, “Synthesis and biological evaluation of some new 2-pyrazolines bearing benzene sulfonamide moiety as potential anti-inflammatory and anti-cancer agents” (Eur J Med Chem, 2011).
